Experimental data reported in PubChem BioAssay (NCI).
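Step 1: Grow cells in 96-well plates. Step 2: Expose to compound for 48 hours at 5 concentrations. Step 3: Interpolate endpoints linearly; if unreached, use highest concentration. Here, GI50 denotes the concentration required for 50% inhibition of growth. The concentration for full growth arrest is given as TGI.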

Columns and labels:
Experiment in all cases: NCI-60 cell line screen, 48 h
A549 NSCLC = tested on: A549 NSCLC
CCRF-CEM leukemia = tested on: CCRF-CEM leukemia
COLO 205 colon = tested on: COLO 205 colon
LOX IMVI melanoma = tested on: LOX IMVI melanoma
NCI-H522 lung = tested on: NCI-H522 lung
SR leukemia = tested on: SR leukemia
MALME-3M melanoma = tested on: MALME-3M melanoma
RXF 393 renal = tested on: RXF 393 renal
A498 renal = tested on: A498 renal
MDA-MB-231 breast = tested on: MDA-MB-231 breast

SMILES	TGI (A549 NSCLC) [µM]	TGI (CCRF-CEM leukemia) [µM]	TGI (COLO 205 colon) [µM]	TGI (LOX IMVI melanoma) [µM]	TGI (NCI-H522 lung) [µM]	TGI (SR leukemia) [µM]	TGI (MALME-3M melanoma) [µM]	TGI (RXF 393 renal) [µM]	GI50 (A498 renal) [µM]	TGI (A498 renal) [µM]	GI50 (A549 NSCLC) [µM]	GI50 (COLO 205 colon) [µM]	GI50 (LOX IMVI melanoma) [µM]	GI50 (MDA-MB-231 breast) [µM]	TGI (MDA-MB-231 breast) [µM]	GI50 (NCI-H522 lung) [µM]	GI50 (RXF 393 renal) [µM]	GI50 (SR leukemia) [µM]	GI50 (CCRF-CEM leukemia) [µM]	GI50 (MALME-3M melanoma) [µM]
O=C1c2ccccc2-c2cc3ccccc3c(=O)n21	> 100	> 100	> 100	> 100	> 100	> 100														
O=C(CCCCCCCCCCc1ccccc1)c1c(O)cccc1O	76.1	90.8	56.5	72.9	42.4	63.4	34.3	39.9												
COc1ccc(C[C@H]2C[C@@H](O)[C@@H](C)C/C=C/Cc3cccc(O)c3C(=O)O2)cn1	> 100		> 100	37.7	49.1	33.7		> 100	0.712	31.4	28.6	34	19.1	16.4	39.6	14.2	30.5	7.44		
CO[C@H]1C=C[C@]23c4cc5c(cc4CN(CC2O)[C@@H]3C1)OCO5 (stereo partly drawn)	44.9		17.9	21.3	16		20.4			9.66					34.6					
Cc1nnc2n1N=C(CC(=O)c1ccc(O)cc1O)CN2N	> 100	> 100	35.8	> 100			> 100	> 100		> 100										
S=C(Nc1ccccc1)Nc1[nH]c(=S)sc1-c1nc2ccccc2[nH]1	> 100	> 100	> 100	> 100	> 100		> 100	> 100		> 100										
CC[C@@]1(OC(=O)CN)C(=O)OCc2c1cc1n(c2=O)Cc2cc3cc(N)ccc3nc2-1	1.45		2.22	0.103	0.34		2.52	0.371	0.0322	0.337	< 0.0176	0.287	< 0.01	0.769	> 100	0.0139	0.044		< 0.01	0.195
O=C1[C@H]2C(c3ccccc3)=NN(C(=O)c3ccccc3)[C@H]2C(=O)N1c1ccccc1	> 100	> 100	> 100	> 100	> 100		> 100	> 100												
CCOC(=O)c1cnc2[nH]c(=O)c3ccccc3n2c1=O	> 100	> 100	> 100	> 100	> 100	> 100	> 100	> 100												
O=C1OCC(C(=O)c2cccc(O)c2)C1=O (stereo not drawn)	> 100		> 100	> 100	> 100		> 100	> 100		> 100										
COc1cc2ccn3c4cc(OC)c(OC)cc4cc3c2cc1OC	> 100	> 100	> 100		> 100	> 100	> 100			> 100										
O=C(CCCCCCCCC(=O)OCC1OC(n2cnc3c(=O)[nH]cnc32)C(O)C1O)OCC1OC(n2cnc3c(=O)[nH]cnc32)C(O)C1O (stereo not drawn)	> 100	> 100	> 100	> 100	> 100		> 100	> 100		> 100										
CC1=C(C#N)C(N)=C2C(C)=C(C#N)C(N)=C12	> 100	> 100	> 100	> 100	> 100	> 100	> 100	> 100		> 100										
COC(=O)/C(C#N)=C1\N=NNN1CCCN1CCOCC1	> 100	> 100	> 100	> 100	> 100		> 100	> 100		> 100										
Oc1cc2cc(-c3ccccc3)[nH]c2c2ccccc12	> 100	> 100	> 37.8	34.3	37.4	> 93.6	41.6	> 78.3		> 100										
CC(C)OP(=O)(CP(=O)(OC(C)C)OC(C)C)OC(C)C.[CH3][Sn]([Br])([Br])[Br]	> 100	> 100	> 100	> 100	> 100		> 100	> 100	> 100	> 100	> 100	> 100	> 100			> 100	> 100		> 100	> 100
Brc1ccc2c(c1)C1(c3cc(Br)ccc3-2)c2cc(Br)ccc2-c2ccc(Br)cc21	> 100	> 100	> 100	> 100	> 100	> 100	> 100	> 100												
COc1cc2c3c(c1OC)-c1ccccc1C(C(OC(C)=O)c1ccccc1)C3N(C)CC2 (stereo not drawn)	> 100	> 100	> 100	> 100	> 100		> 100	> 100		> 100										
CC(CS(=O)(=O)Cc1ccccc1)C(N)=O (stereo not drawn)	> 100		> 100	> 100	> 100	> 100	> 100			> 100					> 100					
COc1cccc(-c2nn(-c3ccccc3)cc2-c2ccnc(NCCNC(=O)Nc3ccc(Cl)c(Cl)c3)c2)c1	12.5		4.44	3.21	5.96	6.02	4.66	3.15			3.38	2.07	1.66	2.04	5.04	2.18	1.2	1.51		1.89
O=C(O)c1cc(Cl)cc(NC(=O)C(Cl)Cl)c1Cl	> 100	> 100	> 100	> 100	> 100		> 100	> 100		> 100										
COC(=O)C(CC=O)C(=O)C(=O)Nc1cccc(C(F)(F)F)c1 (stereo not drawn)	> 100	> 100		> 100	> 100	> 100	> 100	> 100												
